Key:
Assay type in all cases: ADME, organism-based
Set-up in all cases: dose 5 mg/kg, route intravenous
[1] = system: Brain; test: Drug level in mouse brain homogenate assessed as compound recovery after 4 hr post dose measured on basis of intraday target compound concentration of 375 ng/g of brain tissue at 5 mg/kg, iv bolus dose by HPLC; conditions: in vivo
[2] = Ratio of drug level in brain to plasma in Swiss mouse at 5 mg/kg, iv
[3] = system: Brain; test: Drug level in mouse brain homogenate assessed as compound recovery after 4 hr post dose measured on basis of intraday target compound concentration of 3000 ng/g of brain tissue at 5 mg/kg, iv bolus dose by HPLC; conditions: in vivo
[4] = system: Brain; test: Drug level in mouse brain homogenate assessed as compound recovery after 4 hr post dose measured on basis of intraday target compound concentration of 93.8 ng/g of brain tissue at 5 mg/kg, iv bolus dose by HPLC; conditions: in vivo

With COLISTIN the Activity [1] was 86%, the Ratio [2] was 0.02 and the Activity [3] was 96%. For the same sequence, the Activity [4] was 87%.

— ChEMBL document CHEMBL1649240, “Brain penetration of colistin in mice assessed by a novel high-performance liquid chromatographic technique” (Antimicrob Agents Chemother, 2009)
